Results taken from US20120058972A1, “NOVEL USE” (priority 2009, published 2012).

Legend:
[1] = system: NCM-460 cells; assay: Effect of B-GOS on induction of cytokine transcription (qRT-PCR of IL-8, MIP-3α, MCP-1 mRNA); type: cell-based, human; settings: TNF-α 10 ng/mL, 18 hours, p<0.001
Description: Effect of B-GOS on induction of cytokine transcription. NCM-460 cells were grown to confluence in 6-well plates from an initial concentration of 5×10^5 cells/mL. When the cells reached 70% confluence, they were treated as follows in quadruplicate: (i) negative control, (ii) TNF-α or IL1β or flagellin (10 ng/mL) positive control, and (iii) TNF-α or IL1β or flagellin (10 ng/mL) with B-GOS (5 g/L). After 18 hours, total cellular RNA was isolated by Trizol-chloroform extraction. Using the SuperScript III Platinum SYBR Green One-Step qRT-PCR kit, the mRNA expression of IL-8, MIP-3α and MCP-1 was measured on a MJ Opticon 2 and standardized to mRNA expression of GAPDH.
Statistical analysis. Induction of cytokines was standardized to the positive control with error bars representing standard error (SE). Comparisons between groups were performed using a two-tailed Student's t test. Gene expression data obtained by qRT-PCR was expressed as the mean with SE. Comparisons between groups were performed using a Student's two-tailed t test after logarithmic transformation. A p value <0.05 was considered statistically significant and indicated by an asterisk (*), a p value <0.01 was indicated by two asterisks (**) and a p value <0.001 was indicated by three asterisks (***).

[2] = system: T84 cells; assay: Effect of B-GOS on TNF-α induced IL-8 secretion in T84 cells (ELISA); type: cell-based, human; settings: TNF-α 10 ng/mL, vs untreated, p<0.001
Description: (§1) Intestinal epithelial cells were grown to confluence in 24-well plates from an initial concentration of 5×10^5 cells/mL. When the cells reached 70% confluence, they were treated in quadruplicate as follows: (i) negative control, (ii) TNF-α (10 ng/mL) positive control, (iii) B-GOS (5 g/L) and (iv) TNF-α (10 ng/mL) with B-GOS (5 g/L). A concentration of 5 g/L of oligosaccharides was used since this is the physiological concentration of oligosaccharides found in human milk. After 16 hours, supernatants were collected and stored at −20° C. for IL-8 and MIP-3α secretion to be determined later by ELISA. In following experiments, TNF-α was replaced by IL1β or flagellin.
Quantitation of IL-8. The IL-8 concentration was measured by ELISA as described previously (Claud E C, Savidge T, Walker W A 2003 Modulation of human intestinal epithelial cell IL-8 secretion by human milk factors. Pediatr Res 53:419-425). […] The reaction was stopped with 100 μL 2N H2SO4 and the absorbance was read at 490 nm. The concentration of IL-8 in the samples was calculated from the IL-8 standard curve. […]
Statistical analysis. […] Gene expression data obtained by qRT-PCR was expressed as the mean with SE. […]

[3] = system: NF-κB p65 protein; assay: Effect of B-GOS on NF-κB translocation (immunofluorescence); type: cell-based, human; settings: NCM-460 cells, TNF-α 10 ng/mL alone, 30 minutes
Description: Effect of B-GOS on NF-KB translocation. NCM-460 cells were grown to 70% confluency on cover slips and treated in duplicate for 10 or 30 minutes as follows: (i) negative control, (ii) TNF-α (10 ng/mL) positive control, and (iii) TNF-α (10 ng/mL) with B-GOS (5 g/L). The medium was removed and the cells were fixed in 4% paraformaldehyde. After permeabilization with methanol and blocking with 10% goat serum in 0.25% BSA in TBS, the cells were probed with rabbit anti-human NF-κB p65 polyclonal antibody. After washing, the cells were incubated with CyTM 3-conjugated goat anti-rabbit antibody. The cover slips were then washed and mounted on a glass slide to be visualized under the microscope (Nikon Eclipse TE2000-S).

[4] = system: NCM-460 cells; assay: Effect of B-GOS on IL-8 and MIP-3α secretion in NCM-460 cells (ELISA); type: cell-based, human; settings: TNF-α 10 ng/mL, vs untreated, p<0.001
Description: as §1
Quantitation of IL-8. The IL-8 concentration was measured by ELISA as described previously (Claud E C, Savidge T, Walker W A 2003 Modulation of human intestinal epithelial cell IL-8 secretion by human milk factors. Pediatr Res 53:419-425). […] The reaction was stopped with 100 μL 2N H2SO4 and the absorbance was read at 490 nm. The concentration of IL-8 in the samples was calculated from the IL-8 standard curve.
Quantitation of MIP-3α. The amount of MIP-3α secretion was measured by ELISA similar to IL-8, except that the plate was coated overnight with 100 μL 2.0 μg/mL mouse anti-human MIP-3α monoclonal antibody. […] The concentration of MIP-3α in the samples was calculated from the MIP-3α standard curve. […]

[5] = system: Dextran Sulphate Sodium Induced Colitis Mouse Model; assay: Dextran sulphate sodium induced colitis mouse model, IL-6 and MIP-2 in colon tissue homogenates (ELISA); type: in vivo, C57BL/6 mice; settings: 3.5% DSS in drinking water 5 days
Description: Two groups (n=24 each) of adult C57BL/6 mice (Jackson Laboratories, Bar Harbour, Me., USA), conventionally raised (CR) and bacteria-depleted (BD) mice, were used to induce colitis. All animals were housed within a 12-h light/dark cycle and had access to mouse chow and water ad libitum.
At 6 weeks of age, conventionally colonised mice were housed under conventional conditions with untreated water (CR group) whilst mice in the BD group were fed an antibiotic cocktail in their drinking water for 2 weeks. Kanamycin (8 mg/ml), Gentamicin (0.7 mg/ml), Colistin (34,000 U/ml), Metronidazole (4.3 mg/ml) and Vanacomycin (0.9 mg/ml) comprised the antibiotic cocktail. Concentrations of antibiotics in the water were calculated based on the average water consumed by age group.
At 8 weeks of age, intestinal colitis was induced by feeding 3.5% DSS (Dextran Sulphate Sodium) (MP Biomedicals, Aurora, Ohio, USA) in drinking water for 5 days in all mice of both groups (CR and BD). At 10 weeks of age, half the mice of each group started receiving Bimuno (5 g/L) for 7 days. At the end of week 10, the animals were euthanized and their colons were harvested for analysis.
Murine IL-6 and MIP-2 cytokines were analysed by ELISA (Quantikine, R&D Systems, Minn., USA) on colon tissue homogenates according to manufacturer's instructions. Briefly, the proximal colons for each group were collected and homogenised with PBS homogenising buffer containing 1% Triton X-100 supplemented with a cocktail of protease inhibitors. The homogenised solutions were centrifuged at 12,000 rpm for 10 min, and the supernatants were separated into aliquots and stored at −70° C.

Substance: TNF-α
- increase of IL-8 mRNA expression upon TNF-α stimulation [1]: 12.2 fold
- increase of MIP-3α mRNA expression upon TNF-α stimulation [1]: 99.4 fold
- increase of IL-8 secretion upon TNF-α stimulation [2]: 4.9 fold
- nuclear translocation of NF-κB p65 upon TNF-α stimulation [3]: clearly translocated into the nuclei
- increase of IL-8 secretion upon TNF-α stimulation [4]: 58.8 fold
- increase of MIP-3α secretion upon TNF-α stimulation [4]: 25.0 fold

Substance: Dextran Sulphate Sodium [DSS]
- induction of IL-6 secretion by DSS ([5]; BD mice, p<0.0001): 6.2 fold
- induction of MIP-2 secretion by DSS ([5]; BD mice, p=0.0005): 27.2 fold
- induction of IL-6 secretion by DSS ([5]; conventional mice, p<0.0001): 2.2 fold
- induction of MIP-2 secretion by DSS ([5]; conventional mice, p<0.0001): 8.3 fold
